Test results taken from ChEMBL document CHEMBL1201862, “PubChem BioAssay data set” (2004).
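Dose response: 5 concentrations. Exposure: 48 h. Format: 96-well plates. Endpoint: linear interpolation; highest concentration if not reached. GI50: concentration for 50% inhibition of growth.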 Calls of active or inactive are those of the source. No stated cut-off is given here; in the data, active = GI50 up to about 1.1 µM and inactive = higher.

Key:
Experiment in all cases: DTP human tumour cell line panel, 48 h
[1] = test system: A498
[2] = test system: A549
[3] = test system: CAKI-1
[4] = test system: CCRF-CEM
[5] = test system: COLO 205
[6] = test system: DLD-1
[7] = test system: DMS-114
[8] = test system: DMS-273
[9] = test system: EKVX
[10] = test system: HCC 2998
[11] = test system: HCT-116
[12] = test system: HCT-15
[13] = test system: HL-60
[14] = test system: HOP-18
[15] = test system: HOP-62
[16] = test system: HOP-92
[17] = test system: HT-29
[18] = test system: IGROV-1
[19] = test system: K562
[20] = test system: KM-20L2
[21] = test system: KM12
[22] = test system: LOX IMVI
[23] = test system: M19-MEL
[24] = test system: MCF7
[25] = test system: MOLT-4
[26] = test system: Malme-3M
[27] = test system: NCI-H226
[28] = test system: NCI-H23
[29] = test system: NCI-H460
[30] = test system: NCI-H522
[31] = test system: NCI/ADR-RES
[32] = test system: OVCAR-3
[33] = test system: OVCAR-4
[34] = test system: OVCAR-5
[35] = test system: OVCAR-8
[36] = test system: RPMI-8226
[37] = test system: RXF 393
[38] = test system: SF-268
[39] = test system: SF-295
[40] = test system: SF-539
[41] = test system: SK-MEL-28
[42] = test system: SK-MEL-2
[43] = test system: SK-MEL-5
[44] = test system: SK-OV-3
[45] = test system: SN12C
[46] = test system: SNB-19
[47] = test system: SNB-75
[48] = test system: SNB-78
[49] = test system: SW-620
[50] = test system: U-251
[51] = test system: UACC-257
[52] = test system: UACC-62
[53] = test system: UO-31
[54] = test system: LXFL 529
[55] = test system: M14
[56] = test system: SR

Measured: GI50

N/C(=N\O)N/N=C\c1c(O)cc(O)cc1O
63.4 µM: [12]
inactive: [1] > 100 µM | [2] 45.1 µM | [3] > 100 µM | [4] 31.8 µM | [5] > 72.9 µM | [6] > 82.8 µM | [7] 44.2 µM | [8] 14.3 µM | [9] > 35.2 µM | [10] 73.8 µM | [11] > 94.2 µM | [13] 26.1 µM | [14] > 64 µM | [15] > 87.9 µM | [16] 54.8 µM | [17] 93.8 µM | [18] 44.5 µM | [19] 29.2 µM | [20] > 100 µM | [21] 36.4 µM | [22] 60.8 µM | [23] > 71.8 µM | [24] 36.4 µM | [25] 39.8 µM | [26] > 100 µM | [27] 66.7 µM | [28] > 75 µM | [29] 49.5 µM | [30] 39.7 µM | [31] 79.6 µM | [32] > 65.9 µM | [33] > 68.4 µM | [34] > 100 µM | [35] 39.4 µM | [36] 15.6 µM | [37] > 100 µM | [38] > 100 µM | [39] > 46.8 µM | [40] > 100 µM | [41] > 100 µM | [42] > 100 µM | [43] 50.6 µM | [44] > 89.1 µM | [45] 78.7 µM | [46] 65.9 µM | [47] > 47.6 µM | [48] > 100 µM | [49] > 70.3 µM | [50] 41.6 µM | [51] 99.3 µM | [52] 15.8 µM | [53] 26 µM

CC1=C[P+](Cc2ccccc2)(c2ccccc2)CC1 (centres undefined)
inactive: [5] 31.7 µM | [6] > 100 µM | [7] 28.6 µM | [8] 80.9 µM | [9] 80.2 µM | [13] 30.1 µM | [17] 65.2 µM | [19] 93.8 µM | [21] 85.3 µM | [22] 77.3 µM | [54] 37.7 µM | [55] 71.6 µM | [23] 31.8 µM | [28] 97.1 µM | [30] 67.5 µM | [32] 43.2 µM | [33] > 100 µM | [36] 24.1 µM | [39] > 100 µM | [42] 78.7 µM | [43] 30.9 µM | [47] 61.1 µM | [48] > 100 µM | [56] 74.3 µM | [51] 27.8 µM | [52] 64.3 µM
